From US4666897A, “Inhibition of mammalian collagenolytic enzymes by tetracyclines” (Research Foundation of State University, priority 1983, dated 1987)

Key:
[1] = tested on: gingival collagenolytic enzyme activity of diabetic rats; experiment: Collagenolytic enzyme activity in extracts of gingiva from diabetic rats given minocycline; format: in vivo, rat; settings: for Gingival Collagenolytic Activity (% C^14-Collagen Degraded): diabetes + oral daily drug
Description: Rats were made diabetic chemically with the agent streptozotocin. Some of the diabetic rats (half were administered minocycline orally on a daily basis) were killed 15 days, or 28 days, or 56 days after inducing diabetes and the gingiva were dissected, the tissues were extracted, and the extracts partially purified by ammonium sulfate precipitation. The partially purified enzyme preparation from the gingiva of a group of non-diabetic (control) rats, and the diabetic rats, was incubated at 37° C. in vitro with radiolabeled collagen fibrils to assess collagenolytic ennzyme activity.

[2] = tested on: conventional diabetic rats; experiment: Gingival collagenolytic activity, alveolar bone loss, skin collagen and crevicular microflora in conventional streptozotocin-diabetic rats; format: in vivo, rat; settings: 20 mg per day by gavage
Description: Five month old (mean weight, 445g) male Sprague Dawley rats were made diabetic by I.V. injection of streptozotocin (70 mg/kg body weight), after a 12 hour fasting period, (as described by Golub, et al., Biochim. Biophys. Acta., 534, 73-81 (1978) and Golub, et al., Infect. Immun., 37, 1013-1020 (1982). Age matched uninjected rats served as controls. Some of the diabetic rats received the tetracycline, minocycline (20 mg. Minocin® per day; Lederle Laboratories, Pearl River, N.Y.), by gavage on a daily basis beginning 3 days after diabetes is induced. After a 25 day experimental period, blood samples were taken for glucose analysis, and subgingival plaque samples were taken for assessment of the microflora in the region (McNamara, et. al., Archs. Oral. Biol., 27, 217-223 (1982)). The animals were then sacrificed, gingival samples were taken for tissue culture and the jaw bones dissected.
Alveolar bone loss was assessed in the right and left mandibles of both the conventional and germfree rats (control and diabetic) using a modification of a previously described technique (Stralfors, et.al, Archs. Oral. Biol., 12, 1213-1216 (1967); Heijl, et. al., J. Periodontal Res., 15, 405-419 (1980)). The mandibles were defleshed (autoclaving followed by soaking in 2N NaOH for 2-3 h), dried, and the distance (expressed as units; 1 unit=0.05 mm) between the cementoenamel junction (CEJ) and the crest of the alveolar bone is measured in the long axis of the root surface at 10 specified sites on lingual surfaces of the 3 molar teeth (see Crawford, et.al., J. Periodontal Res., 13, 316-325 (1978)) using an eye-piece micrometer in a dissecting microscope (20× magnification).
The techniques used were those described by Schneir and Golub, (Streptozotocin: Fundamentals and Therapy (Ed. M. K. Agarwal, Elsevier/North-Holland Biomed Press, Chapter 12, pp 161-182, (1981)). […]

[3] = biological target: T1, rat PMNL collagenolytic activity (PMNL collagenase) (Rattus norvegicus, UniProt O88766); experiment: Rat PMNL collagenolytic activity in vitro (14C-collagen gel lysis); format: biochemical
T1 construct: An extract of PMNLs was prepared; from tissue; host or cells: extract of peritoneal exudate polymorphonuclear leucocytes of non-diabetic rats, elicited with glycogen
T1 sequence (O88766 102-466): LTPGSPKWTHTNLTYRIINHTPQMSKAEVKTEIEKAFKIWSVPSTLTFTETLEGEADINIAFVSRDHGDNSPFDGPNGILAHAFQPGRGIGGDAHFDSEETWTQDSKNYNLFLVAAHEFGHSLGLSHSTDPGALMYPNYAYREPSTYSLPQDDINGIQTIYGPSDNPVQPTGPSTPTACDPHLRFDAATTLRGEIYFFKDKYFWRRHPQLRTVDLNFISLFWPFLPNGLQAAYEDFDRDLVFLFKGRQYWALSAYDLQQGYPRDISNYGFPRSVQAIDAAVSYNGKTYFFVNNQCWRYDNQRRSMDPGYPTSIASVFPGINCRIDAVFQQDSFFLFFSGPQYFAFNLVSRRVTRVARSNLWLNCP
Description: To test the effect of physiologic levels of minocycline (the concentration in human serum, during a therapeutic regimen, is approximately 2 ug/ml; that in the gingival crevicular fluid is 4-5 times greater; Ciancio, et. al., 1980, J. Periodontol., 51, 531-534) on mammalian collagenolytic activity in vitro, peritonealexudate polymorphomuclear leucocytes (PMNLs) were collected from 15 mole (non-diabetic) rats 4 hours after I.P. injection of 0.15% glycogen. An extract of PMNLs was prepared, 250 μl aliquots of this extract were incubated with ^14 C-glycine labeled collagen fibrils for 14 hours at 35° C. (in the presence or absence of minocycline, or EDTA, or additional CaCl2), and collagenolytic activity was measured as described by Nicoll, et al., (Experientia., 37, 315-317).
The techniques used to measure the collagenolytic enzyme activity of gingival tissue in culture, and in polymorphonuclear leucocytes (PMNLs), are those described by Golub, et. al., (J. Dent. Res., 57, 520-525 (197)8) and Nicoll, et. al., (Experimentia, 37, 315-317, (1981)) with minor modifications.

[4] = during a therapeutic regimen; cited from earlier work
germfree diabetic rats = experiment: Gingival collagenolytic activity, bone loss and skin collagen in germ-free streptozotocin-diabetic rats; format: in vivo, rat
Description: At this time (6 weeks after purchase), diabetes was induced in some of the animals, as described above in a), and the control and diabetic animals maintained under germfree conditions for an additional 6 weeks prior to sacrifice. […] Blood and tissues were then obtained to assess gingival collagenolytic enzyme activity and the loss of skin collagen and bone. The results are set forth below and illustrated in FIG. II. Alveolar bone loss was assessed in the right and left mandibles of both the conventional and germfree rats (control and diabetic) using a modification of a previously described technique (Stralfors, et.al, Archs. Oral. Biol., 12, 1213-1216 (1967); Heijl, et. al., J. […] Periodontal Res., 13, 316-325 (1978)) using an eye-piece micrometer in a dissecting microscope (20× magnification). Because uncontrolled diabetes in the rat results in the massive resorption of skin collagen associated with increased collagenase activity in this tissue, the collagen content of entire skins from the germfree and from the conventional control and diabetic rats, including those treated with minocycline was measured. The techniques used were those described by […] and Golub, (Streptozotocin: Fundamentals and Therapy (Ed. M. K. Agarwal, Elsevier/North-Holland Biomed Press, Chapter 12, pp 161-182, (1981)). The techniques used to measure the collagenolytic enzyme activity of gingival tissue in culture, and in polymorphonuclear leucocytes (PMNLs), are those described by Golub, et. al., (J. Dent. Res., 57, 520-525 (197)8) and Nicoll, et. al., (Experimentia, 37, 315-317, (1981)) with minor modifications.

With `CN(C)c1ccc(O)c2c1C[C@H]1C[C@H]3[C@H](N(C)C)C(O)=C(C(N)=O)C(=O)[C@@]3(O)C(O)=C1C2=O` [minocycline, Minocycline] the “% Inhibition of Collagenolytic Activity by Minocycline” value (“% Inhibition” below) ([1]; 15 days) was 42.5%, the “% Inhibition” value ([1]; 28 days) was 72.7% and the “% Inhibition” value ([1]; 56 days) was 77.2%. The “Gingival Collagenolytic Activity (% C^14-Collagen Degraded)” value ([1]; 15 days, untreated diabetic 50.4, control 9.1) was 29.0%, the “Gingival Collagenolytic Activity (% C^14-Collagen Degraded)” value ([1]; 28 days, untreated diabetic 63.0, control 9.1) was 17.2% and the “Gingival Collagenolytic Activity (% C^14-Collagen Degraded)” value ([1]; 56 days, untreated diabetic 47.8, control 9.1) was 10.9%. For the same compound, the “Gram-negative microflora in the gingival crevices” value [2] was “eliminated detectable signs”, the “alveolar bone loss in the interproximal region” value [2] was “completely reversed” and the “reduction of gingival collagenolytic activity (tissue culture)” value ([2]; 25 day experimental period) was 62%. The “effect on PMNL collagenolytic (collagenase) activity, in words” value ([3]; Table 1) was “almost complete inhibition”, the “Collagenolytic Activity: % ^14 C-collagen gel lysed” value ([3]; Table 1, PMNL extract + 5 μg/ml, control extract 85.5) was 12.4% and the “Collagenolytic Activity: % ^14 C-collagen gel lysed” value ([3]; Table 1, PMNL extract + 20 μg/ml + CaCl2 10 mM) was 38.5%. The “Collagenolytic Activity: % ^14 C-collagen gel lysed” value ([3]; Table 1, PMNL extract + 20 μg/ml + CaCl2 50 mM) was 82.1%, the “Collagenolytic Activity: % ^14 C-collagen gel lysed” value ([3]; Table 1, PMNL extract + 20 μg/ml, control extract 85.5) was 8.3% and the “Collagenolytic Activity: % ^14 C-collagen gel lyzed” value ([3]; Table 2, PMNL extract (30 × 10^6 PMNLs per ml) + 20 ug/ml, control extract 39.0) was 4.0%. For the same compound, the “concentration in human serum” value [4] was “approximately 2 ug/ml”, the “concentration in the gingival crevicular fluid relative to serum” value [4] was 4-5 times greater and the “increase of skin collagen levels” value (germfree diabetic rats; germ-free diabetic rats, 20 mg/day for the last 4 weeks, versus untreated diabetics) was 45%. The bone levels (germfree diabetic rats; germfree control, diabetic and minocycline-treated diabetic rats) was “no differences” and the “reduction of gingival collagenolytic activity (tissue culture)” value (germfree diabetic rats; germfree diabetic rats, 20 mg/day by gavage for the last 4 weeks) was 70%.
